Source: ChEMBL document CHEMBL1140824, “Hepatoselectivity of statins: design and synthesis of 4-sulfamoyl pyrroles as HMG-CoA reductase inhibitors” (Bioorg Med Chem Lett, 2008)

How the values were obtained:
Hepatocyte [1] = assay: Inhibition of cholesterol synthesis in rat hepatocyte; format: functional, cell-based
[2] = target: T1, 3-hydroxy-3-methylglutaryl-coenzyme A reductase (Rattus norvegicus, UniProt P51639); assay: Inhibition of rat microsomal HMGCoA reductase
T1 sequence (P51639 whole entry): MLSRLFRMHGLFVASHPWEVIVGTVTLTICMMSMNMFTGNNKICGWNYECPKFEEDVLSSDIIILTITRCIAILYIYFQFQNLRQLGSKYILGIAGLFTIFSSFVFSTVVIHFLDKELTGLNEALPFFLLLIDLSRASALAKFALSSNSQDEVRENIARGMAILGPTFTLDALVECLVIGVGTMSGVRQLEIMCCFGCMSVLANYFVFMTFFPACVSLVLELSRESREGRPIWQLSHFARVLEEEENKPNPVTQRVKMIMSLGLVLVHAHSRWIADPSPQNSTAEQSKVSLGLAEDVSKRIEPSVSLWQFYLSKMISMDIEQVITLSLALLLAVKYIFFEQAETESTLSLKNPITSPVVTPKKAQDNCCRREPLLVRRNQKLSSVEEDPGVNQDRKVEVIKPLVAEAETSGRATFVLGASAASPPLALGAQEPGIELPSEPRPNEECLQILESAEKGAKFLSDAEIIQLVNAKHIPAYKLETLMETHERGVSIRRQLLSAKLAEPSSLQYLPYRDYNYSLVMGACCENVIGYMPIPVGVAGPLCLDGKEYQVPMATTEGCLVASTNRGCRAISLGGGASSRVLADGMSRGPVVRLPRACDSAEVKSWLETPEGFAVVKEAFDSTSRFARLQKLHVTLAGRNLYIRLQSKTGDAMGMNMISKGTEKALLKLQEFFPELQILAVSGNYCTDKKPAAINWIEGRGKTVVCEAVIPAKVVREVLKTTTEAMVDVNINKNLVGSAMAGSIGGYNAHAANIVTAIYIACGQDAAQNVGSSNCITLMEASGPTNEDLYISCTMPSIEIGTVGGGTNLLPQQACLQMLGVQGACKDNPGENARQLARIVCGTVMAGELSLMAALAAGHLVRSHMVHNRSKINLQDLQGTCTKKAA

L6 = assay: Inhibition of cholesterol synthesis in rat L6 myocyte; format: functional, cell-based
Hepatocyte [3] = assay: Selectivity, ratio of IC50 for rat L6 myocyte to IC50 for rat hepatocyte; format: functional
Mus musculus = assay: Inhibition of acute cholesterol synthesis in mouse at 1 mg/kg; format: functional; details: read-out: Inhibition
Syrian golden hamster = assay: Reduction of LDL cholesterol level in syrian golden hamster plasma; format: functional, Mesocricetus auratus
[4] = Cmax in human; format: ADME, organism-based; details: in vivo
[5] = Ratio of Cmax for human to IC50 for rat L6 myocyte; format: functional
Homo sapiens = species: Homo sapiens; assay: Incidence of myalgia in human; format: ADME, organism-based; details: in vivo

| Structure (SMILES) | IC50 [2] [nM] | Cmax [4] [nM] | IC50 (Hepatocyte [1]) [nM] | IC50 (L6) [nM] | Ratio IC50 (Hepatocyte [3]) | inhibition in vivo at 1 mg/kg (Mus musculus) [%] | Inhibition (Syrian golden hamster) [%] | Ratio [5] | Activity (Homo sapiens) [%] |
| --- | --- | --- | --- | --- | --- | --- | --- | --- | --- |
| CC(C)c1c(S(=O)(=O)N2CCc3ccccc3C2)c(-c2ccc(F)cc2)c(-c2ccc(F)cc2)n1CC[C@@H](O)C[C@@H](O)CC(=O)[O-].[Na+] | 8.4 | – | 2.5 | 2500 | 984 | – | – | – | – |
| CC(C)c1c(S(=O)(=O)Nc2ccccc2)c(-c2ccc(F)cc2)c(-c2ccc(F)cc2)n1CC[C@@H](O)C[C@@H](O)CC(=O)[O-].[Na+] | 2 | – | 0.96 | 45 | 45 | – | – | – | – |
| CC(C)c1c(S(=O)(=O)NCc2ccccc2)c(-c2ccc(F)cc2)c(-c2ccc(F)cc2)n1CC[C@@H](O)C[C@@H](O)CC(=O)[O-].[Na+] | 13 | – | 0.37 | 2200 | 5945 | 58.6 | – | – | – |
| CC(C)c1c(S(=O)(=O)N2CCOCC2)c(-c2ccccc2)c(-c2ccc(F)cc2)n1CC[C@@H](O)C[C@@H](O)CC(=O)[O-].[Na+] | – | – | 0.8 | 10000 | 12469 | 55.6 | 11 | – | – |
| CC(C)c1c(S(=O)(=O)Nc2cccc(CC(N)=O)c2)c(-c2ccc(F)cc2)c(-c2ccc(F)cc2)n1CC[C@@H](O)C[C@@H](O)CC(=O)[O-].[Na+] | 1 | – | 1.4 | 10000 | 7299 | – | – | – | – |
| CC(C)c1c(S(=O)(=O)N2CCN(C)CC2)c(-c2ccccc2)c(-c2ccc(F)cc2)n1CC[C@@H](O)C[C@@H](O)CC(=O)[O-].[Na+] | 2.7 | – | 3 | 10500 | 3559 | – | – | – | – |
| CC(C)c1c(S(=O)(=O)N(C)Cc2ccccc2)c(-c2ccccc2)c(-c2ccc(F)cc2)n1CC[C@@H](O)C[C@@H](O)CC(=O)[O-].[Na+] | 8.5 | – | 0.25 | 140 | 566 | – | – | – | – |
| CC(C)c1c(S(=O)(=O)N2CCCCC2)c(-c2ccccc2)c(-c2ccc(F)cc2)n1CC[C@@H](O)C[C@@H](O)CC(=O)[O-].[Na+] | 2.9 | – | 0.67 | 7000 | 10479 | 56 | – | – | – |
| CC(C)c1c(S(=O)(=O)Nc2ccc(F)cc2)c(-c2ccc(F)cc2)c(-c2ccc(F)cc2)n1CC[C@@H](O)C[C@@H](O)CC(=O)[O-].[Na+] | 15 | – | 0.47 | 60 | 127 | 51.8 | – | – | – |
| CC(C)c1c(C(=O)Nc2ccccc2)c(-c2ccccc2)c(-c2ccc(F)cc2)n1CC[C@@H](O)C[C@@H](O)CC(=O)O [ATORVASTATIN] | – | – | 0.99 | 142 | – | 75.2 | – | – | – |
| CC[C@H](C)C(=O)O[C@H]1C[C@H](O)C=C2C=C[C@H](C)[C@H](CC[C@@H](O)C[C@@H](O)CC(=O)O)[C@H]21 [PRAVASTATIN] | – | 100 | – | – | 444 | – | – | 0.01 | 10.9 |
| CCC(C)(C)C(=O)O[C@H]1C[C@@H](C)C=C2C=C[C@H](C)[C@H](CC[C@@H]3C[C@@H](O)CC(=O)O3)[C@H]21 [SIMVASTATIN] | – | 120 | – | 150 | – | – | – | – | 18.2 |

The next lines start with results.

| IC50 [2] [nM] | Cmax [4] [nM] | Structure (SMILES) | IC50 (Hepatocyte [1]) [nM] | IC50 (L6) [nM] | Ratio IC50 (Hepatocyte [3]) | inhibition in vivo at 1 mg/kg (Mus musculus) [%] | Inhibition (Syrian golden hamster) [%] | Ratio [5] | Activity (Homo sapiens) [%] |
| --- | --- | --- | --- | --- | --- | --- | --- | --- | --- |
| 9.4 | – | CC(C)c1c(S(=O)(=O)Nc2cccc(O)c2)c(-c2ccc(F)cc2)c(-c2ccc(F)cc2)n1CC[C@@H](O)C[C@@H](O)CC(=O)[O-].[Na+] | 0.4 | 2500 | 6250 | 44.2 | – | – | – |
| 9.7 | – | CC(C)c1c(S(=O)(=O)N2CCSCC2)c(-c2ccc(F)cc2)c(-c2ccc(F)cc2)n1CC[C@@H](O)C[C@@H](O)CC(=O)[O-].[Na+] | 3.3 | 5700 | 1748 | 15 | – | – | – |
| 1.8 | – | CC(C)c1c(S(=O)(=O)N2CCC2)c(-c2ccccc2)c(-c2ccc(F)cc2)n1CC[C@@H](O)C[C@@H](O)CC(=O)[O-].[Na+] | 1.1 | 2150 | 1954 | 34.8 | – | – | – |
| 6.1 | – | CC(C)c1c(S(=O)(=O)N(C)C)c(-c2ccc(F)cc2)c(-c2ccc(F)cc2)n1CC[C@@H](O)C[C@@H](O)CC(=O)[O-].[Na+] | 0.75 | 1400 | 1866 | 58.8 | 30 | – | – |
| 4.9 | – | CC(C)c1c(S(=O)(=O)Nc2ccc(S(N)(=O)=O)cc2)c(-c2ccc(F)cc2)c(-c2ccc(F)cc2)n1CC[C@@H](O)C[C@@H](O)CC(=O)[O-].[Na+] | 2.7 | 4380 | 1622 | 15 | – | – | – |
| 18 | – | CC(C)c1c(S(=O)(=O)Nc2cccc(C(N)=O)c2)c(-c2ccc(F)cc2)c(-c2ccc(F)cc2)n1CC[C@@H](O)C[C@@H](O)CC(=O)[O-].[Na+] | 5 | 36000 | 7340 | – | – | – | – |
| 9 | – | CC(C)c1c(S(=O)(=O)Nc2ccccc2)c(-c2ccccc2)c(-c2ccc(F)cc2)n1CC[C@@H](O)C[C@@H](O)CC(=O)[O-].[Na+] | 0.57 | 20 | 34 | 49.2 | – | – | – |
| 5.8 | – | CC(C)c1c(S(=O)(=O)Nc2ccc(C(N)=O)cc2)c(-c2ccc(F)cc2)c(-c2ccc(F)cc2)n1CC[C@@H](O)C[C@@H](O)CC(=O)[O-].[Na+] | 1.8 | 2340 | 1300 | 34.4 | – | – | – |
| 8 | – | CC(C)c1c(S(=O)(=O)N(C)Cc2ccccc2)c(-c2ccc(F)cc2)c(-c2ccc(F)cc2)n1CC[C@@H](O)C[C@@H](O)CC(=O)[O-].[Na+] | 0.69 | 550 | 797 | – | – | – | – |
| 2.6 | – | CC(C)c1c(S(=O)(=O)N2CCCC2)c(-c2ccccc2)c(-c2ccc(F)cc2)n1CC[C@@H](O)C[C@@H](O)CC(=O)[O-].[Na+] | 0.5 | 5200 | 10400 | 75.9 | 38 | – | – |
| 6.5 | – | CC(C)c1c(S(=O)(=O)N(C)C)c(-c2ccccc2)c(-c2ccc(F)cc2)n1CC[C@@H](O)C[C@@H](O)CC(=O)[O-].[Na+] | 0.45 | 1380 | 3066 | – | – | – | – |
| 27 | – | CNS(=O)(=O)c1c(-c2ccc(F)cc2)c(-c2ccc(F)cc2)n(CC[C@@H](O)C[C@@H](O)CC(=O)O)c1C(C)C | 0.22 | – | – | 33 | – | – | – |
| – | 25 | COCc1c(C(C)C)nc(C(C)C)c(/C=C/[C@@H](O)C[C@@H](O)CC(=O)O)c1-c1ccc(F)cc1 [CERIVASTATIN] | – | 7 | 4.1 | – | – | 3.6 | – |
| 3.7 | 75 | CC(C)c1nc(N(C)S(C)(=O)=O)nc(-c2ccc(F)cc2)c1/C=C/[C@@H](O)C[C@@H](O)CC(=O)O [ROSUVASTATIN] | – | – | 926 | 82.4 | 62 | 0.3 | – |
